From PubChem BioAssay AID789 (SRMLSC, 2007) come the findings set out here.

Test [1] concerns S. cerevisiae apl2Δ mutant growth inhibition. The experiment in a line: growth inhibition of apl2Δ yeast, dose response, selectivity assay for post-Golgi transport modulator project, S. cerevisiae, secondary screen, background strain comparison (AID 789).
Assay in test [2]: as above
The following applies: S. cerevisiae background (wild-type parent) strain growth inhibition.

The source made the active and inactive calls. No rule for the calls is given here.

As usually defined, the IC50 is the concentration needed to halve the response being measured.

As to `Cc1cccc2cc(C#N)c(NCCCn3ccnc3)nc12`, the figures for the IC50 in test [1] and in test [2] were > 10 µM (inactive) and more than 10 µM, respectively.

In the case of `CCc1cc(=O)oc2cc(C)c(CN3CCCC(C)C3)c(O)c12` (centres undefined), the IC50 is > 10 µM (inactive) in test [1] and more than 10 µM in test [2].

On to `Cc1ccc(C(=O)NCc2occc2C(=O)O)o1`, for which the values for the IC50 in test [1] and in test [2] were > 10 µM (inactive) and more than 10 µM, respectively.

As to `CCn1c(=O)[nH]c2cc(C(=O)N3CCN(c4ccccc4)CC3)ccc2c1=O`, the IC50 was > 10 µM (inactive) in test [1] and more than 10 µM in test [2].

Regarding `CC(C)COC(=O)c1ccc2c(c1O)C(=O)c1ccccc1C2=O`, the values for the IC50 in test [1] and in test [2] were > 10 µM (inactive) and more than 10 µM, respectively.

`CCN(CC)C(=O)C1CCN(Cc2ccc(Br)cc2)CC1`: the IC50 was > 10 µM (inactive) in test [1] and more than 10 µM in test [2].

For the molecule `Clc1cc(Br)ccc1OCCOCCN1CCOCC1`, the IC50 in test [1] is > 10 µM (inactive); in test [2], more than 10 µM.

For the molecule `Fc1ccc(Cn2nnc(-c3ccc(CN4CCOCC4)cc3)n2)cc1`, the IC50 in test [1] was > 10 µM (inactive); in test [2] it was more than 10 µM.

With `COc1cc2[nH]c(=S)n(CCCN3CCOCC3)c(=O)c2cc1OC`, the values for the IC50 in test [1] and in test [2] were > 10 µM (inactive) and more than 10 µM, respectively.

For the molecule `CCCCSCCCNC(=O)Nc1cccc(OC)c1`, the figures for the IC50 in test [1] and in test [2] were > 10 µM (inactive) and more than 10 µM, respectively.

As to `CC(C)Oc1ccc(/C(O)=C2/C(=O)C(=O)N(CCN(C)C)C2c2ccco2)cc1` (centres undefined), the IC50 in test [1] is > 10 µM (inactive); in test [2], more than 10 µM.

On to `Clc1ccc(-c2n[nH]c3c2CCC3)cc1Cl`, for which the IC50 in test [1] is 2.74 µM (inactive); in test [2], 1.81 µM.

For the molecule `Cc1cccc(N2CCN(CC(=O)Nc3nccs3)CC2)c1C`, the results for the IC50 in test [1] and in test [2] were > 10 µM (inactive) and more than 10 µM, respectively.

For the molecule `CN1C(=O)/C(=C/c2cccn2-c2ccc3ccccc3c2)C(=O)NC1=S`, the IC50 is 11.3 µM (inactive) in test [1] and 6.58 µM in test [2].

Take `O=C(Cc1cccs1)Nc1nc2c(s1)CCCC2`: the IC50 in test [1] was > 10 µM (inactive); in test [2], more than 10 µM.

Regarding `Cc1cc(C)c2c(c1)/C(=C/C(=O)c1ccc(Br)s1)C(=O)N2`, the IC50 is 1.55 µM (inactive) in test [1] and 1.42 µM in test [2].

With `O=c1c2cccc3c2c(nn1CN1CCOCC1)-c1ccccc1-3`, the IC50 in test [1] was > 10 µM (inactive); in test [2], more than 10 µM.

For the molecule `O=C(NC1CCCC1)C(c1ccsc1)N(C(=O)Cc1cccs1)c1ccc(F)cc1` (centres undefined), the IC50 was > 10 µM (inactive) in test [1] and more than 10 µM in test [2].

Take `COCCNc1cc(C)nc2c3c(C)cc(C)nc3nn12`: the figures for the IC50 in test [1] and in test [2] were > 10 µM (inactive) and more than 10 µM, respectively.

As for `Cc1ccc(/C=N/n2cnc3sc(-c4ccccc4)cc3c2=O)o1`, the IC50 in test [1] is > 10 µM (inactive); in test [2], more than 10 µM.

For `O=C(Nc1cccc(Cl)c1)N1CCN(C/C=C/c2ccccc2)CC1`, the IC50 is > 10 µM (inactive) in test [1] and more than 10 µM in test [2].

Turning to `COCCCNc1ccnc2c(Cl)cccc12`, the IC50 was > 10 µM (inactive) in test [1] and more than 10 µM in test [2].

For `Cc1ccc(-c2csc3nnc(SCC(=O)Nc4cccc(C)n4)n23)cc1`, the IC50 in test [1] was > 10 µM (inactive); in test [2], more than 10 µM.

In the case of `COCCNC(=O)C(c1ccc(F)cc1)N(CC1CCCO1)C(=O)CCC(=O)Nc1ccccn1` (centres undefined), the IC50 was > 10 µM (inactive) in test [1] and more than 10 µM in test [2].

As for `CCN(CC)CCn1nc(C)nc1-c1ccccc1O`, the results for the IC50 in test [1] and in test [2] were > 10 µM (inactive) and more than 10 µM, respectively.

For the molecule `O=C(N/N=C/c1ccc(OC(=O)c2ccccc2)cc1)c1ccc(CN2CCOCC2)cc1`, the IC50 was > 10 µM (inactive) in test [1] and more than 10 µM in test [2].

On to `O=C(COc1ccc(Cl)cc1Cl)N1CCN(C/C=C/c2ccccc2)CC1`, for which the values for the IC50 in test [1] and in test [2] were 4.89 µM and 7.14 µM, respectively.

Regarding `COc1cccc(-c2cc(C(=O)N3CCN(C(c4ccccc4)c4ccccc4)CC3)no2)c1`, the values for the IC50 in test [1] and in test [2] were > 10 µM (inactive) and more than 10 µM, respectively.

In the case of `c1ccc(-c2ccc(-c3cnc4n3CCCCC4)cc2)cc1`, the IC50 in test [1] was > 10 µM (inactive); in test [2], more than 10 µM.

As to `O=C(Nc1nnc(-c2ccc3c(c2)CCCC3)o1)c1ccccc1Cl`, the IC50 in test [1] is > 10 µM (inactive); in test [2], 10.7 µM.

Take `Cc1ccc(C)c(NS(=O)(=O)c2cc(C(=O)N3CCc4ccccc4C3)ccc2Cl)c1`: the IC50 was 5.74 µM in test [1] and 6.88 µM in test [2].

Regarding `O=C1c2cccc3c([N+](=O)[O-])ccc(c23)C(=O)N1c1ccc(Cl)cn1`, the IC50 in test [1] is 14.5 µM (inactive); in test [2], 6.08 µM.

In the case of `N#CC1=C(N)C(C#N)(C#N)C(c2cccnc2)C2CC(c3ccccc3)CC=C12` (centres undefined), the IC50 is 4.06 µM (inactive) in test [1] and 2.97 µM in test [2].

As to `Cc1cc(C(C)(C)C)ccc1OCCN1CCCC1`, the IC50 in test [1] is > 10 µM (inactive); in test [2], more than 10 µM.

Regarding `CN1/C(=C/C2CC(=O)NC2=O)C(C)(C)c2ccccc21` (centres undefined), the IC50 is > 10 µM (inactive) in test [1] and more than 10 µM in test [2].

`O=C(c1ccc(Cl)cc1Cl)N1CCC(c2nc3c(nnn3Cc3ccco3)c(=O)[nH]2)CC1`: the IC50 in test [1] was > 10 µM (inactive); in test [2] it was more than 10 µM.

On to `C=CCc1ccc(OCC(O)CN2CCC(Cc3ccccc3)CC2)c(OC)c1` (centres undefined), for which the half-maximal inhibitory concentration (IC50) in test [1] was 12.5 µM; in test [2], 19.1 µM.

As to `CCC(OC(=O)C(NC(=O)c1ccccc1)c1ccccc1)C(=O)Nc1cc(C)on1` (centres undefined), the results for the IC50 in test [1] and in test [2] were > 10 µM (inactive) and more than 10 µM, respectively.

Take `CC1CCCCC1NC(=O)CSc1nnnn1-c1ccccc1` (centres undefined): the IC50 was > 10 µM (inactive) in test [1] and more than 10 µM in test [2].

Regarding `C/C(CCC12CC3CC(CC(C3)C1)C2)=N\NC(N)=S`, the IC50 in test [1] is 4.94 µM; in test [2], 5.28 µM.

With `COc1cc(CN2CCN(c3ccc(C)cc3)CC2)cc([N+](=O)[O-])c1O`, the IC50 in test [1] is > 10 µM (inactive); in test [2], more than 10 µM.

Consider `O=[N+]([O-])c1cc(C(F)(F)F)ccc1N/N=C/c1cc2ccccc2nc1Cl`, for which the IC50 in test [1] is > 10 µM (inactive); in test [2], more than 10 µM.

On to `O=C(Cn1nnc(-c2ccc(S(=O)(=O)N3CCCC3)cc2)n1)NCC1CCCO1` (centres undefined), for which the IC50 in test [1] is > 10 µM (inactive); in test [2], more than 10 µM.

For the molecule `O=C(NCc1ccc2c(c1)OCO2)c1ccc(-n2cnnn2)cc1`, the IC50 was > 10 µM (inactive) in test [1] and more than 10 µM in test [2].

As for `COc1ccc(Cl)cc1NC(=O)C(C)N1CCN(C/C=C/c2ccccc2)CC1` (centres undefined), the values for the IC50 in test [1] and in test [2] were 20.4 µM (inactive) and 15 µM, respectively.

`C/C(=N\N=C(/N)SC1CC(=O)N(c2ccc(Cl)c(Cl)c2)C1=O)c1cccs1` (centres undefined): the IC50 in test [1] was > 10 µM (inactive); in test [2] it was 5.98 µM.

On to `FC(F)(F)COc1nc(N2CCCCC2)nc(N2CCNCC2)n1`, for which the IC50 was > 10 µM (inactive) in test [1] and more than 10 µM in test [2].

Consider `Cc1cc(N2C(=O)C3CCCN3C2c2sccc2C)no1` (centres undefined), for which the IC50 in test [1] is > 10 µM (inactive); in test [2], more than 10 µM.

Turning to `O=C(OCn1ncc(Cl)c(Cl)c1=O)c1ccc(C(F)(F)F)cc1`, the IC50 in test [1] was > 10 µM (inactive); in test [2], more than 10 µM.

As to `C=CCc1ccccc1OCC(O)CN1CCN(Cc2ccc3c(c2)OCO3)CC1` (centres undefined), the IC50 in test [1] is 19.6 µM; in test [2], more than 10 µM.

As to `O=C(c1ccco1)N1CCN(c2ncnc3c2[nH]c2ccccc23)CC1`, the IC50 is > 10 µM (inactive) in test [1] and more than 10 µM in test [2].

As to `COc1ccc(C(=O)c2c(C(F)(F)F)oc3c2C(=O)c2ccccc2C3=O)cc1`, the IC50 in test [1] is > 10 µM (inactive); in test [2], 2.32 µM.

Consider `Cc1ccc(S(=O)(=O)N(CC(=O)N2CCC(C(N)=O)CC2)c2cccc(C(F)(F)F)c2)cc1`, for which the values for the IC50 in test [1] and in test [2] were > 10 µM (inactive) and more than 10 µM, respectively.

Consider `COc1ccc(CN(C(=O)Cc2cccs2)C(C(=O)NC2CCCC2)c2ccncc2)cc1` (centres undefined), for which the figures for the IC50 in test [1] and in test [2] were > 10 µM (inactive) and more than 10 µM, respectively.

Regarding `CC1CCCCN1CCNC(=O)Cn1nc(-c2ccccc2)ccc1=O` (centres undefined), the IC50 was > 10 µM (inactive) in test [1] and more than 10 µM in test [2].

`C=C(C)C1CC=C(CN2CCC(C(=O)OCC)CC2)CC1` (centres undefined): the IC50 in test [1] is > 10 µM (inactive); in test [2] it was more than 10 µM.

As for `N#Cc1cn(-c2ccccc2)nc1-c1cc2ccccc2oc1=O`, the IC50 in test [1] is > 10 µM (inactive); in test [2], more than 10 µM.

Turning to `CCc1ccc(C(=O)/C=C/c2ccc([N+](=O)[O-])o2)cc1`, the IC50 is > 10 µM (inactive) in test [1] and 20.7 µM in test [2].

For `Cn1c(=O)c2nc(NCc3ccccc3)cnc2n(C)c1=O`, the IC50 is > 10 µM (inactive) in test [1] and more than 10 µM in test [2].

As for `O=C(OCn1ncc(Cl)c(Cl)c1=O)c1ccccc1Cl`, the IC50 was > 10 µM (inactive) in test [1] and 16.6 µM in test [2].

As to `Cc1ccc(NS(=O)(=O)c2cc(C(=O)N3CCOCC3)ccc2C)cc1`, the IC50 in test [1] is > 10 µM (inactive); in test [2] it was more than 10 µM.

`O=c1c2c3c(sc2ncn1/N=C/c1ccc([N+](=O)[O-])o1)CCCC3`: the figures for the IC50 in test [1] and in test [2] were 2.1 µM (inactive) and 1.59 µM, respectively.

As to `Cc1cc(C)nc(NC(=O)CSc2nn(C)c(=S)s2)n1`, the figures for the IC50 in test [1] and in test [2] were > 10 µM (inactive) and more than 10 µM, respectively.

With `CCOCCCNC(=O)c1cc2sc(Cl)cc2n1CC`, the IC50 was > 10 µM (inactive) in test [1] and more than 10 µM in test [2].

For `O=C(CCC(=O)OCC(=O)c1ccc(F)cc1)NC1CCCCC1`, the IC50 in test [1] was > 10 µM (inactive); in test [2] it was more than 10 µM.

For the molecule `O=C1CN(C(=O)CSc2nnc(-c3ccccc3)n2Cc2ccc3c(c2)OCO3)c2ccccc2N1`, the IC50 in test [1] is > 10 µM (inactive); in test [2], more than 10 µM.

Turning to `Cc1ccc(S(=O)(=O)NC(CC(C)C)C(=O)Oc2ccc3c4c(c(=O)oc3c2)CCC4)cc1` (centres undefined), the IC50 in test [1] was > 10 µM (inactive); in test [2], more than 10 µM.
